Measured values: US8207156B2, “Substituted pyrazoline compounds, their preparation and use as medicaments” (Laboratorios Del Dr. Esteve, S.A., priority 2005, dated 2012)
Where a name gives a salt, the structure may show the parent alone.

Biological target: recombinant human cannabinoid 1 receptor (CB1) (Homo sapiens, UniProt P21554)
Assay: In vitro determination of antagonism to CB1-receptor ([35S]GTPγS binding assay, CHO cell membranes)
Format: biochemical
Details: compound at 1 μM against agonist WIN 55,212-2 (3 nM to 3 μM), effect of Rimonabant (1 μM) defined as 100%
Experimental: Chinese hamster ovary (CHO) cells stably expressing recombinant human cannabinoid 1 receptor (CB1) were cultured in nutrient mixture Ham's F 12 supplemented with 10% heat-inactivated fetal bovine serum, 2 mM L-glutamine, 50 U/ml penicillin, 50 U/ml streptomycin and 0.5 mg/ml geneticin. In order to obtain cells, culture flasks were washed twice with phosphate buffered saline and scraped. Then, cells were collected by centrifugation (200×g, 10 min) and stored dry at −80° C. Cells were homogenized in ice-cold 20 mM HEPES, 10 mM EDTA (pH 7.5) and centrifuged at 40,000×g for 15 min at 4° C. The membrane pellet was resuspended in 20 mM HEPES, 0.1 mM EDTA (pH 7.5) and centrifuged for 15 min at 4° C. The final membrane pellet was resuspended in 20 mM HEPES, 0.1 mM EDTA (pH 7.5), and divided in aliquots and stored at −80° C. until use.
The reaction was performed in 96-well plates. Membranes (15 μg protein/well) were incubated for 60 min at 30° C. in buffer (50 mM HEPES, 100 mM KCl, 5 mM MgCl2,1 mM EDTA, 0.1% wt/vol bovine serum albumin, 5 μM GDP, saponin (10 μg/ml), 0.5 nM [^35S]GTPγS, pH 7.4) with compound at a final concentration of 1 μM in either the absence or presence of agonist WIN 55, 212-2 between 3 nM and 3 μM. The incubation was terminated by rapid filtration through Millipore Multiscreen glass fiber FB, and rinsed two-times with ice-cold assay buffer. Filter plates were dried and 30 μl of scintillation liquid was added. Radioactivity was determined using a Wallac Microbeta Trilux. Each experiment was performed at least in duplicate. A WIN 55, 212-2 dose-response experiment either alone or in the presence of Rimonabant (1 μM) was systematically performed.
The average of basal [^35S]GTPγS binding was subtracted from all binding data. In order to compare the antagonism results from one screening campaign to another one, the difference between the maximal agonist effect of WIN 55, 212-2 alone, and the maximal antagonism effect due to WIN 55, 212-2 plus Rimonabant (1 μM) was defined as 100%.

recombinant human cannabinoid 1 receptor (CB1), sequence (P21554 whole entry): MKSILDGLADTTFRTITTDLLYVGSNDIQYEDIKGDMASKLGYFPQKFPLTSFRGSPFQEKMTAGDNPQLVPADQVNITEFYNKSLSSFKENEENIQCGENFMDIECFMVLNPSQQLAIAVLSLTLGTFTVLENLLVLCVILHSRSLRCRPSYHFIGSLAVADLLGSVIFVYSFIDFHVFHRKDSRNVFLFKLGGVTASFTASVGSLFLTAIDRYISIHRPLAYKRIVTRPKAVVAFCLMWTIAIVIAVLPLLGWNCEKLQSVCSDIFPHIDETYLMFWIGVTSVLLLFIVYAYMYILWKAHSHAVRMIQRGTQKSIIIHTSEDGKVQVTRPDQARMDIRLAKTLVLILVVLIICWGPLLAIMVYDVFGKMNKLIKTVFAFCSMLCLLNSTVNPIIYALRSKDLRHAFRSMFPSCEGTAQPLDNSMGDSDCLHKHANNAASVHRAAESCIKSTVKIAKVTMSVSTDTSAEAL

O=C(NC1CC1)C1=NN(c2ccc(Cl)cc2Cl)C(c2ccc(Cl)cc2)C1 (stereo not shown) [Example 36, 5-(4-Chloro-phenyl)-1-(2,4-dichloro-phenyl)-4,5-dihydro-1H-pyrazole-3-carboxylic acid cyclopropylamide]
Antagonism [%]: −5%

O=C(NN1CCN(C2CCCC2)CC1)C1=NN(c2ccc(Cl)cc2Cl)C(c2ccc(Cl)cc2)C1 (stereo not shown) [Example 26, 5-(4-Chloro-phenyl)-1-(2,4-dichloro-phenyl)-4,5-dihydro-1H-pyrazole-3-carboxylic acid (4-cyclopentyl-piperazin-1-yl)-amide]
Antagonism [%]: 52%

O=C(NN1CCCC1)C1=NN(c2ccc(Cl)cc2Cl)C(c2ccc(Br)cc2)C1 (stereo not shown) [Example 61, 5-(4-Bromo-phenyl)-1-(2,4-dichloro-phenyl)-4,5-dihydro-1H-pyrazole-3-carboxylic acid pyrrolidin-1-ylamide]
Antagonism [%]: 75%

O=C(NN1CC2CCCC2C1)C1=NN(c2ccc(Cl)cc2Cl)C(c2ccc(Cl)cc2)C1 (stereo not shown) [Example 10, 5-(4-Chloro-phenyl)-1-(2,4-dichloro-phenyl)-4,5-dihydro-1H-pyrazole-3-carboxylic acid (hexahydro-cyclopenta[c]pyrrol-2-yl)-amide]
Antagonism [%]: 119%

O=C(NN1Cc2cccc3cccc(c23)C1)C1=NN(c2ccc(Cl)cc2Cl)C(c2ccc(Cl)cc2)C1 (stereo not shown) [Example 25, 5-(4-Chloro-phenyl)-1-(2,4-dichloro-phenyl)-4,5-dihydro-1H-pyrazole-3-carboxylic acid (1H,3H-benzo[de]isoquinolin-2-yl)-amide]
Antagonism [%]: 7%

O=C(NC1CCC1)C1=NN(c2ccc(Cl)cc2Cl)C(c2ccc(Cl)cc2)C1 (stereo not shown) [Example 30, 5-(4-Chloro-phenyl)-1-(2,4-dichloro-phenyl)-4,5-dihydro-1H-pyrazole-3-carboxylic acid cyclobutylamide]
Antagonism [%]: 54%

CC1CCCC(C)N1NC(=O)C1=NN(c2ccc(Cl)cc2Cl)C(c2ccc(Br)cc2)C1 (stereo not shown) [Example 62, 5-(4-Bromo-phenyl)-1-(2,4-dichloro-phenyl)-4,5-dihydro-1H-pyrazole-3-carboxylic acid (2,6-dimethyl-piperidin-1-yl)-amide]
Antagonism [%]: 67%

O=C(C1=NN(c2ccc(Cl)cc2Cl)C(c2ccc(Cl)cc2)C1)N1CCC(N2CCCCC2)CC1 (stereo not shown) [Example 42, [1,4′]Bipiperidinyl-1′-yl-[5-(4-chloro-phenyl)-1-(2,4-dichloro-phenyl)-4,5-dihydro-1H-pyrazol-3-yl]-methanone]
Antagonism [%]: −13%

O=C(C1=NN(c2ccc(Cl)cc2Cl)C(c2ccc(Cl)cc2)C1)N1CCc2sccc2C1 (stereo not shown) [Example 56, [5-(4-Chloro-phenyl)-1-(2,4-dichloro-phenyl)-4,5-dihydro-1H-pyrazol-3-yl]-(6,7-dihydro-4H-thieno[3,2-c]pyridin-5-yl)-methanone]
Antagonism [%]: 44%

CC1(C)[C@@H]2CC[C@@]1(C)[C@@H](NC(=O)C1=NN(c3ccc(Cl)cc3Cl)C(c3ccc(Cl)cc3)C1)C2 (stereo partly shown) [Example 58, 5-(4-Chloro-phenyl)-1-(2,4-dichloro-phenyl)-4,5-dihydro-1H-pyrazole-3-carboxylic acid (1,7,7-trimethyl-bicyclo[2.2.1]hept-2-yl)-amide]
Antagonism [%]: 47%

O=C(NN1CCc2ccccc21)C1=NN(c2ccc(Cl)cc2Cl)C(c2ccc(Cl)cc2)C1 (stereo not shown) [Example 28, 5-(4-Chloro-phenyl)-1-(2,4-dichloro-phenyl)-4,5-dihydro-1H-pyrazole-3-carboxylic acid (2,3-dihydro-indol-1-yl)-amide]
Antagonism [%]: 63%

CN(C)C(=O)C1=NN(c2ccc(Cl)cc2Cl)C(c2ccc(Cl)cc2)C1 (stereo not shown) [Example 51, 5-(4-Chloro-phenyl)-1-(2,4-dichloro-phenyl)-4,5-dihydro-1H-pyrazole-3-carboxylic acid dimethylamide]
Antagonism [%]: 21%

CCC1CCC(C)N(C(=O)C2=NN(c3ccc(Cl)cc3Cl)C(c3ccc(Cl)cc3)C2)C1 (stereo not shown) [Example 59, [5-(4-Chloro-phenyl)-1-(2,4-dichloro-phenyl)-4,5-dihydro-1H-pyrazol-3-yl]-(5-ethyl-2-methyl-piperidin-1-yl)-methanone]
Antagonism [%]: 60%

O=C(NC1CCCCCCC1)C1=NN(c2ccc(Cl)cc2Cl)C(c2ccc(Cl)cc2)C1 (stereo not shown) [Example 34, 5-(4-Chloro-phenyl)-1-(2,4-dichloro-phenyl)-4,5-dihydro-1H-pyrazole-3-carboxylic acid cyclooctylamide]
Antagonism [%]: 60%

O=C(NN1CCOCC1)C1=NN(c2ccc(Cl)cc2Cl)C(c2ccc(Br)cc2)C1 (stereo not shown) [Example 67, 5-(4-Bromo-phenyl)-1-(2,4-dichloro-phenyl)-4,5-dihydro-1H-pyrazole-3-carboxylic acid morpholin-4-ylamide]
Antagonism [%]: 52%

CN1CCN(C(=O)C2=NN(c3ccc(Cl)cc3Cl)C(c3ccc(Cl)cc3)C2)CC1 (stereo not shown) [Example 43, [5-(4-Chloro-phenyl)-1-(2,4-dichloro-phenyl)-4,5-dihydro-1H-pyrazol-3-yl]-(4-methyl-piperazin-1-yl)-methanone]
Antagonism [%]: 25%

O=C(O)C1=NN(c2ccc(Cl)cc2Cl)C(c2ccc(F)cc2)C1 (stereo not shown) [Example 126, 1-(2,4-Dichloro-phenyl)-5-(4-fluoro-phenyl)-4,5-dihydro-1H-pyrazole-3-carboxylic acid]
Antagonism [%]: 30%

CC1CCCCN1C(=O)C1=NN(c2ccc(Cl)cc2Cl)C(c2ccc(Cl)cc2)C1 (stereo not shown) [Example 46, [5-(4-Chloro-phenyl)-1-(2,4-dichloro-phenyl)-4,5-dihydro-1H-pyrazol-3-yl]-(2-methyl-piperidin-1-yl)-methanone]
Antagonism [%]: 53%

CCCCCCNC(=O)C1=NN(c2ccc(Cl)cc2Cl)C(c2ccc(Cl)cc2)C1 (stereo not shown) [Example 20, 5-(4-Chloro-phenyl)-1-(2,4-dichloro-phenyl)-4,5-dihydro-1H-pyrazole-3-carboxylic acid hexylamide]
Antagonism [%]: 61%

Cl.O=C(NN1CCOCC1)C1=NN(c2ccc(Cl)cc2Cl)C(c2ccc(Cl)cc2)C1 (stereo not shown) [Example 9, 5-(4-Chloro-phenyl)-1-(2,4-dichloro-phenyl)-4,5-dihydro-1H-pyrazole-3-carboxylic acid morpholin-4-ylamide hydrochloride]
Antagonism [%]: 53%

O=C(C1=NN(c2ccc(Cl)cc2Cl)C(c2ccc(Cl)cc2)C1)N1CCC1 (stereo not shown) [Example 40, Azetidin-1-yl-[5-(4-chloro-phenyl)-1-(2,4-dichloro-phenyl)-4,5-dihydro-1H-pyrazol-3-yl]-methanone]
Antagonism [%]: 32%

O=C(NN1C(=O)c2cccc3cccc(c23)C1=O)C1=NN(c2ccc(Cl)cc2Cl)C(c2ccc(Cl)cc2)C1 (stereo not shown) [Example 24, 5-(4-Chloro-phenyl)-1-(2,4-dichloro-phenyl)-4,5-dihydro-1H-pyrazole-3-carboxylic acid (1,3-dioxo-1H,3H-benzo[de]isoquinolin-2-yl)-amide]
Antagonism [%]: 27%

CC(C)N(C(=O)C1=NN(c2ccc(Cl)cc2Cl)C(c2ccc(Cl)cc2)C1)C(C)C (stereo not shown) [Example 50, 5-(4-Chloro-phenyl)-1-(2,4-dichloro-phenyl)-4,5-dihydro-1H-pyrazole-3-carboxylic acid diisopropylamide]
Antagonism [%]: 18%

CC1CCC(NC(=O)C2=NN(c3ccc(Cl)cc3Cl)C(c3ccc(Cl)cc3)C2)CC1 (stereo not shown) [Example 17, 5-(4-Chloro-phenyl)-1-(2,4-dichloro-phenyl)-4,5-dihydro-1H-pyrazole-3-carboxylic acid (4-methyl-cyclohexyl)-amide]
Antagonism [%]: 65%

O=C(C1=NN(c2ccc(Cl)cc2Cl)C(c2ccc(Cl)cc2)C1)N1CCOCC1 (stereo not shown) [Example 54, [5-(4-Chloro-phenyl)-1-(2,4-dichloro-phenyl)-4,5-dihydro-1H-pyrazol-3-yl]-morpholin-4-yl-methanone]
Antagonism [%]: 46%

O=C(NN1CC2CCCC2C1)C1=NN(c2ccc(Cl)cc2Cl)C(c2ccc(Cl)cc2)C1 (stereo not shown) [Example 193, 5-(4-Chloro-phenyl)-1-(2,4-dichloro-phenyl)-4,5-dihydro-1H-pyrazole-3-carboxylic acid (hexahydro-cyclopenta[c]pyrrol-2-yl)-amide hydrochloride]
Antagonism [%] (hydrochloride): 115%

O=C(O)C1=NN(c2ccc(Cl)cc2Cl)C(c2ccc(Br)cc2)C1 (stereo not shown) [Example 128, 5-(4-Bromo-phenyl)-1-(2,4-dichloro-phenyl)-4,5-dihydro-1H-pyrazole-3-carboxylic acid]
Antagonism [%]: 18%

CCN(C(=O)C1=NN(c2ccc(Cl)cc2Cl)C(c2ccc(Cl)cc2)C1)C1CCCCC1 (stereo not shown) [Example 33, 5-(4-Chloro-phenyl)-1-(2,4-dichloro-phenyl)-4,5-dihydro-1H-pyrazole-3-carboxylic acid cyclohexyl-ethyl-amide]
Antagonism [%]: 2%
